Data: ChEMBL document CHEMBL1201862, “PubChem BioAssay data set” (2004)
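96-well plates; 48 h exposure; 5 concentrations. Endpoints by linear interpolation between flanking doses. Not reached: highest tested concentration assigned. The concentration for 50% growth inhibition is given as GI50.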 Activity calls are given as the source filed them. Rule as the data show it: active = GI50 up to about 1.1 µM and inactive = higher.

What was measured:
Assay in all cases: NCI tumour cell line growth inhibition, 48 h
Malme-3M = test system: Malme-3M
SK-MEL-28 = test system: SK-MEL-28
K562 = test system: K562
NCI-H226 = test system: NCI-H226
RPMI-8226 = test system: RPMI-8226
OVCAR-5 = test system: OVCAR-5
SK-OV-3 = test system: SK-OV-3
EKVX = test system: EKVX
NCI-H522 = test system: NCI-H522
BT-549 = test system: BT-549
CCRF-CEM = test system: CCRF-CEM
SK-MEL-2 = test system: SK-MEL-2
UACC-62 = test system: UACC-62
SR = test system: SR
MDA-N = test system: MDA-N
HOP-62 = test system: HOP-62
COLO 205 = test system: COLO 205
HOP-92 = test system: HOP-92
NCI-H460 = test system: NCI-H460
OVCAR-3 = test system: OVCAR-3

Measured: GI50

[O-][n+]1cn[n+]([O-])c2ccccc21
inactive: Malme-3M 18.6 µM | SK-MEL-28 > 100 µM | K562 6.95 µM | NCI-H226 > 100 µM | RPMI-8226 28.6 µM | OVCAR-5 > 100 µM | SK-OV-3 27.3 µM | EKVX 33 µM | NCI-H522 15.1 µM | BT-549 23.7 µM | CCRF-CEM 3.46 µM | SK-MEL-2 27.4 µM | UACC-62 16.3 µM | SR 18.4 µM | MDA-N 20.1 µM | HOP-62 17.9 µM | COLO 205 19.2 µM

CN(C)c1ccc(/C=C2\N=C(N/N=C/c3ccc(N(C)C)cc3)NC2=O)cc1
inactive: Malme-3M > 100 µM | HOP-92 25.5 µM | SK-MEL-28 > 100 µM | NCI-H226 > 100 µM | NCI-H460 51.5 µM | RPMI-8226 76.6 µM | OVCAR-5 > 100 µM | SK-OV-3 > 100 µM | EKVX > 100 µM | NCI-H522 47.9 µM | BT-549 > 100 µM | OVCAR-3 50.9 µM | CCRF-CEM 27.5 µM | SK-MEL-2 > 100 µM | UACC-62 > 100 µM | MDA-N > 100 µM | HOP-62 > 100 µM | COLO 205 22.8 µM

C[C@H]1O[C@@H](c2c(O)ccc3ccccc23)C[C@@H](N(C)C)C1O (stereo partly specified)
inactive: Malme-3M 48 µM | HOP-92 24.2 µM | SK-MEL-28 97.5 µM | K562 > 100 µM | NCI-H226 43.7 µM | NCI-H460 52.7 µM | OVCAR-5 > 100 µM | SK-OV-3 > 100 µM | EKVX > 100 µM | NCI-H522 > 100 µM | BT-549 > 100 µM | OVCAR-3 > 100 µM | CCRF-CEM > 100 µM | SK-MEL-2 > 100 µM | UACC-62 81.3 µM | MDA-N > 100 µM | HOP-62 > 100 µM | COLO 205 65.3 µM

O=C(O)Cn1cc([N+](=O)[O-])c(=O)c2ccccc21
inactive: Malme-3M > 100 µM | SK-MEL-28 > 100 µM | K562 > 100 µM | NCI-H226 > 100 µM | NCI-H460 > 100 µM | OVCAR-5 > 100 µM | SK-OV-3 > 100 µM | NCI-H522 > 100 µM | BT-549 > 100 µM | OVCAR-3 > 100 µM | CCRF-CEM > 100 µM | SK-MEL-2 > 100 µM | UACC-62 > 100 µM | SR > 100 µM | MDA-N > 100 µM | HOP-62 > 100 µM | COLO 205 19.5 µM

Cc1ccc2c(O)cc(-c3sc4ccccc4c3C)nc2n1
inactive: Malme-3M 16.7 µM | HOP-92 4.46 µM | SK-MEL-28 19.1 µM | K562 27.1 µM | NCI-H226 20.4 µM | RPMI-8226 14.5 µM | OVCAR-5 34 µM | SK-OV-3 21.7 µM | EKVX 25.5 µM | NCI-H522 16.4 µM | BT-549 16.9 µM | CCRF-CEM 23.9 µM | SK-MEL-2 37 µM | UACC-62 16.9 µM | MDA-N 13.2 µM | HOP-62 25.1 µM | COLO 205 23.4 µM

COC(=NCCC1=CCCCC1)OC
inactive: Malme-3M 31.2 µM | HOP-92 31.6 µM | SK-MEL-28 44.7 µM | K562 36 µM | NCI-H460 57.1 µM | RPMI-8226 32.1 µM | OVCAR-5 51.3 µM | SK-OV-3 > 100 µM | EKVX 69 µM | NCI-H522 32.4 µM | BT-549 > 100 µM | OVCAR-3 > 100 µM | CCRF-CEM 8.71 µM | SK-MEL-2 87.7 µM | UACC-62 > 100 µM | MDA-N 95.3 µM | HOP-62 > 100 µM | COLO 205 16.3 µM

CC(=O)NCC1OC2COC(c3ccccc3)OC2C(NC(=O)c2ccccc2)C1OC(=O)c1ccccc1 (stereo unspecified)
inactive: Malme-3M > 100 µM | HOP-92 > 100 µM | SK-MEL-28 > 100 µM | K562 > 100 µM | NCI-H226 > 100 µM | NCI-H460 > 100 µM | OVCAR-5 > 100 µM | SK-OV-3 > 100 µM | EKVX > 100 µM | BT-549 > 100 µM | OVCAR-3 > 100 µM | CCRF-CEM > 100 µM | SK-MEL-2 > 100 µM | UACC-62 > 100 µM | MDA-N > 100 µM | HOP-62 > 100 µM | COLO 205 > 100 µM

Cc1ccc(-c2c(C#N)c(-c3ccc([N+](=O)[O-])cc3)c(C#N)c(=O)n2NS(=O)(=O)c2ccc(C)cc2)cc1
inactive: Malme-3M 96.4 µM | HOP-92 23.5 µM | SK-MEL-28 52.8 µM | K562 46.2 µM | NCI-H226 > 100 µM | NCI-H460 39.8 µM | RPMI-8226 18.9 µM | OVCAR-5 > 100 µM | SK-OV-3 36.6 µM | EKVX 47.5 µM | NCI-H522 31.8 µM | BT-549 16.5 µM | OVCAR-3 21.2 µM | CCRF-CEM 25.9 µM | SK-MEL-2 62.4 µM | UACC-62 31 µM | MDA-N 75.9 µM | HOP-62 67.1 µM | COLO 205 80.4 µM

COC(=O)[C@H](Cc1ccccc1)NC(=O)NCCN(CCNC(=O)N[C@@H](Cc1ccccc1)C(=O)OC)C(=O)N[C@@H](Cc1ccccc1)C(=O)OC
inactive: Malme-3M 22 µM | HOP-92 35.4 µM | SK-MEL-28 19.4 µM | K562 22.3 µM | NCI-H226 18.2 µM | NCI-H460 18.8 µM | RPMI-8226 25.3 µM | OVCAR-5 20.4 µM | SK-OV-3 31.9 µM | EKVX 30.6 µM | NCI-H522 15.7 µM | BT-549 18.9 µM | OVCAR-3 19.5 µM | SK-MEL-2 21.8 µM | UACC-62 25.5 µM | MDA-N 18.2 µM | HOP-62 20.7 µM | COLO 205 21.9 µM

CCSc1c(C)c2c(n(Cc3ccc(OC)cc3)c1=O)Cc1ccccc1C2
inactive: Malme-3M 10.8 µM | SK-MEL-28 92.7 µM | K562 16.5 µM | NCI-H226 36.5 µM | NCI-H460 6.11 µM | OVCAR-5 46.9 µM | SK-OV-3 39.5 µM | EKVX 21.4 µM | NCI-H522 11.9 µM | BT-549 22.9 µM | OVCAR-3 20.1 µM | CCRF-CEM 2.02 µM | SK-MEL-2 8.3 µM | UACC-62 22.9 µM | SR 3.61 µM | MDA-N 10.4 µM | HOP-62 23.1 µM | COLO 205 35.6 µM

CCc1n[nH]c(=O)n1CCO
inactive: HOP-92 > 100 µM | SK-MEL-28 > 100 µM | K562 > 100 µM | NCI-H226 > 100 µM | NCI-H460 > 100 µM | RPMI-8226 > 100 µM | OVCAR-5 > 100 µM | SK-OV-3 > 100 µM | EKVX > 100 µM | BT-549 > 100 µM | OVCAR-3 > 100 µM | SK-MEL-2 > 100 µM | UACC-62 > 100 µM | MDA-N > 100 µM | COLO 205 > 100 µM

Clc1ccc(C(c2ccc(Cl)cc2)c2cncnc2)cc1
inactive: Malme-3M 19.1 µM | SK-MEL-28 18.5 µM | K562 21.9 µM | NCI-H460 17.6 µM | RPMI-8226 34.4 µM | OVCAR-5 15.6 µM | SK-OV-3 16 µM | EKVX > 10 µM | NCI-H522 17.2 µM | BT-549 13.9 µM | OVCAR-3 14.7 µM | CCRF-CEM 17.5 µM | UACC-62 15.2 µM | SR 31.8 µM | MDA-N 14.2 µM | HOP-62 17.2 µM | COLO 205 17.1 µM

O=C(O)C/C(=C\c1ccco1)C(=O)O
inactive: Malme-3M > 100 µM | SK-MEL-28 > 100 µM | K562 > 100 µM | NCI-H226 > 100 µM | RPMI-8226 > 100 µM | OVCAR-5 > 100 µM | SK-OV-3 > 100 µM | EKVX > 100 µM | NCI-H522 > 100 µM | BT-549 > 100 µM | OVCAR-3 > 100 µM | SK-MEL-2 > 100 µM | UACC-62 > 100 µM | SR > 100 µM | MDA-N > 100 µM | HOP-62 > 100 µM | COLO 205 > 100 µM

O=C1C=CC(=O)N1n1c(-c2ccccc2)n[nH]c1=O
inactive: Malme-3M > 100 µM | K562 > 100 µM | NCI-H226 > 100 µM | NCI-H460 > 100 µM | OVCAR-5 > 100 µM | SK-OV-3 > 100 µM | EKVX > 100 µM | NCI-H522 > 100 µM | BT-549 > 100 µM | OVCAR-3 > 100 µM | CCRF-CEM > 100 µM | SK-MEL-2 > 100 µM | UACC-62 > 100 µM | SR > 100 µM | MDA-N > 100 µM | HOP-62 > 100 µM | COLO 205 > 100 µM

CC(C)(Br)C(=O)C(Br)Br
inactive: Malme-3M 2.01 µM | HOP-92 1.7 µM | SK-MEL-28 9.04 µM | K562 2.95 µM | NCI-H226 16.7 µM | NCI-H460 18.1 µM | OVCAR-5 16.8 µM | SK-OV-3 17.5 µM | EKVX 13.8 µM | NCI-H522 1.67 µM | BT-549 4.9 µM | OVCAR-3 6.89 µM | CCRF-CEM 1.51 µM | SK-MEL-2 13 µM | UACC-62 10.5 µM | MDA-N 5.3 µM | HOP-62 > 42.3 µM | COLO 205 2.74 µM

CS(=O)(=O)OCCN1CCC2(CC1)SSC1(CCN(CCOS(C)(=O)=O)CC1)S2
inactive: Malme-3M 22.8 µM | SK-MEL-28 > 100 µM | K562 64.4 µM | NCI-H460 34.8 µM | RPMI-8226 8.87 µM | OVCAR-5 24 µM | SK-OV-3 64.4 µM | BT-549 45.5 µM | OVCAR-3 29.2 µM | SK-MEL-2 > 100 µM | UACC-62 30.1 µM | SR 14.1 µM | MDA-N 75.5 µM | HOP-62 > 100 µM | COLO 205 28.7 µM
